In patent publication US11427548B2 (Arvinas Operations, Inc., priority 2015, dated 2022):
Like-named read-outs stand apart in the source and are kept apart here.

Biological target: T1, Androgen Receptor (Homo sapiens, UniProt P10275)
T1 construct: endogenous in cells; host or cells: VCaP cells
T1 sequence (P10275 1-920): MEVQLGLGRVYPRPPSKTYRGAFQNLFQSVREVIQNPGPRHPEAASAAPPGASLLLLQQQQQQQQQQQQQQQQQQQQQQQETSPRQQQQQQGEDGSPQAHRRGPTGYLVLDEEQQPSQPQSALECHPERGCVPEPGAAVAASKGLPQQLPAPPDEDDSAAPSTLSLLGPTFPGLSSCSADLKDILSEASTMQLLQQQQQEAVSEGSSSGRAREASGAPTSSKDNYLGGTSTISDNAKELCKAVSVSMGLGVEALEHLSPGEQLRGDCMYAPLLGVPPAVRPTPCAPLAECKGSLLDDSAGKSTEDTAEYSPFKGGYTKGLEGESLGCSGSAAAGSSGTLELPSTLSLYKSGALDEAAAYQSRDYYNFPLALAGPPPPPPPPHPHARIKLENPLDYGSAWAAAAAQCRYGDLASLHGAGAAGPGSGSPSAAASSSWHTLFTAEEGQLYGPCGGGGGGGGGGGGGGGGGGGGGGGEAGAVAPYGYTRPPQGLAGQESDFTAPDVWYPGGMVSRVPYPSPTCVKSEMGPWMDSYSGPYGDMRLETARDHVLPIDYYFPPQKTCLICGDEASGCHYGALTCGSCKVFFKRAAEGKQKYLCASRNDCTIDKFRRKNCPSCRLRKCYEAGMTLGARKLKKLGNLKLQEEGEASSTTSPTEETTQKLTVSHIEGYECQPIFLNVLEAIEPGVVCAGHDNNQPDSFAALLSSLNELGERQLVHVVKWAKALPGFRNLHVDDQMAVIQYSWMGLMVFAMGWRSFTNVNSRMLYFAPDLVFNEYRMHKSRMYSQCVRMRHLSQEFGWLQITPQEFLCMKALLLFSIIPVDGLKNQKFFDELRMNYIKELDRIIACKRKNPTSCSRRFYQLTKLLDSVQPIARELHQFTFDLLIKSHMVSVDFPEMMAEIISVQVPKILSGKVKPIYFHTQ
Test: Androgen Receptor ELISA assay (PathScan AR ELISA) in VCaP cells: AR degradation, Dmax and DC50
Format: cell-based
Details: Table 36; for DC50: read-out: VCaP DC50; for Dmax: VCaP
Summary of the method: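 VCaP cells, 30,000/well, grown ≥3 days in phenol red-free RPMI with 5% charcoal-stripped FBS; compound added in 0.1% DMSO with 0.1 nM R1881, 7 half-log doses, 24 h. Lysate AR quantified by PathScan sandwich ELISA, HRP/TMB read at 450 nm, giving DC50 and Dmax.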

[1] = VCaP cells, read-out: VCaP Dmax (%)
[2] = read-out: VCaP Dmax (%), VCaP cells

Row | Compound | DC50 (VCaP cells) [µM] | Dmax [1] [%] | Dmax [2] [%] | VCaP Dmax (%) (VCaP cells)
1 | Cc1ncsc1-c1ccc([C@H](C)NC(=O)[C@@H]2C[C@@H](O)CN2C(=O)[C@@H](NC(=O)CCCC/C(CCCc2ccc(C(=O)N[C@H]3C(C)(C)[C@H](Oc4ccc(C#N)c(Cl)c4)C3(C)C)nc2)=N\O)C(C)(C)C)cc1 [Example 693, N-((1r,3r)-3-(3-chloro-4-cyanophenoxy)-2,2,4,4-tetramethylcyclobutyl)-5-((E)-9-(((S)-1-((2S,4R)-4-hydroxy-2-(((S)-1-(4-(4-methylthiazol-5-yl)phenyl)ethyl)carbam-oyl)pyrrolidin-1-yl)-3,3-dimethyl-1-oxobutan-2-yl)amino)-4-(hydroxyimino)-9-oxononyl)picolinamide] | < 0.05 | 26 to 50 | – | –
2 | Cc1ncsc1-c1ccc(C(C)NC(=O)C2CC(O)CN2C(=O)C(NC(=O)CN2CCOCCOCCN(c3ccc(C(=O)NC4C(C)(C)C(Oc5ccc(C#N)c(Cl)c5)C4(C)C)cc3)CCOCCOCC2)C(C)(C)C)cc1 [Example 694, (2S,4R)-1-((S)-2-(2-(16-(4-(((1r,3r)-3-(3-chloro-4-cyanophenoxy)-2,2,4,4-tetramethylcyclobutyl)carbamoyl)phenyl)-1,4,10,13-tetraoxa-7,16-diazacyclooctadecan-7-yl)acetamido)-3,3-dimethylbutanoyl)-4-hydroxy-N-((S)-1-(4-(4-methylthiazol-5-yl)phenyl)ethyl)pyrrolidine-2-carboxamide] | < 0.05 | – | 51 to 70 | –
3 | CCO/N=C(\CCCCC(=O)N[C@H](C(=O)N1C[C@H](O)C[C@H]1C(=O)N[C@@H](C)c1ccc(-c2scnc2C)cc1)C(C)(C)C)CCCc1ccc(C(=O)N[C@H]2C(C)(C)[C@H](Oc3ccc(C#N)c(Cl)c3)C2(C)C)nc1 [Example 695, N-((1r,3r)-3-(3-chloro-4-cyanophenoxy)-2,2,4,4-tetramethylcyclobutyl)-5-((E)-4-(ethoxyimino)-9-(((S)-1-((2S,4R)-4-hydroxy-2-(((S)-1-(4-(4-methylthiazol-5-yl)phenyl)ethyl)carbam-oyl)pyrrolidin-1-yl)-3,3-dimethyl-1-oxobutan-2-yl)amino)-9-oxononyl)picolinamide] | 0.051 to 0.5 | 51 to 70 | – | –
4 | CC(C)[C@H](C(=O)N1C[C@H](O)C[C@H]1C(=O)N[C@@H](C)c1ccc(C#N)cc1)c1cc(OCCN2CCN(c3ccc(C(=O)N[C@H]4C(C)(C)[C@H](Oc5ccc(C#N)c(Cl)c5)C4(C)C)cn3)CC2)no1 [Example 696, N-((1r,3r)-3-(3-chloro-4-cyanophenoxy)-2,2,4,4-tetramethylcyclobutyl)-6-(4-(2-((5-((S)-1-((2S,4R)-2-(((S)-1-(4-cyanophenyl)ethyl)carb-amoyl)-4-hydroxypyrrolidin-1-yl)-3-methyl-1-oxobutan-2-yl)isoxazol-3-yl)oxy)ethyl)piperazin-1-yl)nicotinamide] | < 0.05 | – | < 25 | –
5 | CC(NC(=O)C1CC(O)CN1C(=O)C(c1cc(OCCN2CCN(c3ccc(C(=O)NC4C(C)(C)C(Oc5ccc(C#N)c(Cl)c5)C4(C)C)cn3)CC2)no1)C(C)C)c1ccc(C#N)cc1 [Example 697, N-((1r,3r)-3-(3-chloro-4-cyanophenoxy)-2,2,4,4-tetramethylcyclobutyl)-6-(4-(2-((5-((R)-1-((2S,4R)-2-(((S)-1-(4-cyanophenyl)ethyl)carb-amoyl)-4-hydroxypyrrolidin-1-yl)-3-methyl-1-oxobutan-2-yl)isoxazol-3-yl)oxy)ethyl)piperazin-1-yl)nicotinamide] | < 0.05 | – | 26 to 50 | –
6 | Cc1ncsc1-c1ccc([C@H](C)NC(=O)[C@@H]2C[C@@H](O)CN2C(=O)[C@@H](NC(=O)CN2CCN(CCCOCc3cc(C(=O)N[C@@H](C)Cn4ccc(-c5ccc(C#N)c(Cl)c5)n4)n[nH]3)CC2)C(C)(C)C)cc1 [Example 698, N-((S)-1-(3-(3-chloro-4-cyanophenyl)-1H-pyrazol-1-yl)propan-2-yl)-5-((3-(4-(2-(((S)-1-((2S,4R)-4-hydroxy-2-(((S)-1-(4-(4-methylthiazol-5-yl)phenyl)ethyl)carbam-oyl)pyrrolidin-1-yl)-3,3-dimethyl-1-oxobutan-2-yl)amino)-2-oxoethyl)piperazin-1-yl)propoxy)methyl)-1H-pyrazole-3-carboxamide] | < 0.05 | > 71 | – | –
7 | Cc1ncsc1-c1ccc([C@H](C)NC(=O)[C@@H]2C[C@@H](O)CN2C(=O)[C@@H](c2ncc(CCCN3CCN(c4ccc(C(=O)NC5C(C)(C)C(Oc6ccc(C#N)c(Cl)c6)C5(C)C)cn4)CC3)n2C)C(C)C)cc1 (stereo partly drawn) [Example 701, N-((1r,3r)-3-(3-chloro-4-cyanophenoxy)-2,2,4,4-tetramethylcyclobutyl)-6-(4-(3-(2-((R)-1-((2S,4R)-4-hydroxy-2-(((S)-1-(4-(4-methylthiazol-5-yl)phenyl)ethyl)carbam-oyl)pyrrolidin-1-yl)-3-methyl-1-oxobutan-2-yl)-1-methyl-1H-imidazol-5-yl)propyl)piperazin-1-y)nicotinamide] | > 0.501 | – | – | + (Dmax ≤ 25%)
8 | Cc1ncsc1-c1ccc([C@H](C)NC(=O)[C@@H]2C[C@@H](O)CN2C(=O)[C@H](c2ncc(CCCN3CCN(c4ccc(C(=O)NC5C(C)(C)C(Oc6ccc(C#N)c(Cl)c6)C5(C)C)cn4)CC3)n2C)C(C)C)cc1 (stereo partly drawn) [Example 702, N-((1r,3r)-3-(3-chloro-4-cyanophenoxy)-2,2,4,4-tetramethylcyclobutyl)-6-(4-(3-(2-((S)-1-((2S,4R)-4-hydroxy-2-(((S)-1-(4-(4-methylthiazol-5-yl)phenyl)ethyl)carbam-oyl)pyrrolidin-1-yl)-3-methyl-1-oxobutan-2-yl)-1-methyl-1H-imidazol-5-yl)propyl)piperazin-1-yl)nicotinamide] | > 0.501 | – | – | + (Dmax ≤ 25%)

Continued, in another order:

Row | DC50 (VCaP cells) [µM] | Dmax [1] [%] | Dmax [2] [%] | Compound | VCaP Dmax (%) (VCaP cells)
9 | < 0.05 | – | 26 to 50 | Cc1ncsc1-c1ccc([C@H](C)NC(=O)[C@@H]2C[C@@H](O)CN2C(=O)[C@@H](NC(=O)COCCN(CCCc2ccc(C(=O)N[C@H]3C(C)(C)[C@H](Oc4ccc(C#N)c(Cl)c4)C3(C)C)nc2)CCC(F)(F)F)C(C)(C)C)cc1 [Example 699, N-((1r,3r)-3-(3-chloro-4-cyanophenoxy)-2,2,4,4-tetramethylcyclobutyl)-5-(3-((2-(2-(((S)-1-((2S,4R)-4-hydroxy-2-(((S)-1-(4-(4-methylthiazol-5-yl)phenyl)ethyl)carbam-oyl)pyrrolidin-1-yl)-3,3-dimethyl-1-oxobutan-2-yl)amino)-2-oxoethoxy)ethyl)(3,3,3-trifluoropropyl)amino)propyl)picolinamide] | –
10 | > 0.501 | < 25 | – | CNC(=O)[C@H]1CCCN1C(=O)C(NC(=O)COCCN1CCN(c2ccc(C(=O)N[C@H]3C(C)(C)[C@H](Oc4ccc(C#N)c(Cl)c4)C3(C)C)cn2)CC1)C(C)(C)C (stereo partly drawn) [Example 700, N-((1r,3r)-3-(3-chloro-4-cyanophenoxy)-2,2,4,4-tetramethylcyclobutyl)-6-(4-(2-(2-(((S)-3,3-dimethyl-1-((S)-2-(methylcarbamoyl)pyrroli-din-1-yl)-1-oxobutan-2-yl)amino)-2-oxoethoxy)ethyl)pipera-zin-1-yl)nicotinamide] | –
11 | > 0.501 | < 25 | – | Cc1ncsc1-c1ccc(CNC(=O)[C@@H]2C[C@@H](O)CN2C(=O)C(NC(=O)COCCN2CCN(c3ccc(C(=O)N[C@H]4C(C)(C)[C@H](Oc5ccc(C#N)c(C(F)(F)F)c5)C4(C)C)cn3)C(=O)C2)C(C)(C)C)cc1 (stereo partly drawn) [Example 703] | –
12 | > 0.501 | < 25 | – | Cc1ncsc1-c1ccc(C(NC(=O)[C@@H]2C[C@@H](O)CN2C(=O)C(NC(=O)COCCN2CCN(c3ccc(C(=O)N[C@H]4C(C)(C)[C@H](Oc5ccc(C#N)c(C(F)(F)F)c5)C4(C)C)cn3)CC2)C(C)(C)C)C2COC2)cc1 (stereo partly drawn) [Example 704, N-((1r,3r)-3-(4-cyano-3-(trifluoromethyl)phenoxy)-2,2,4,4-tetramethylcyclobutyl)-6-(4-(2-(2-(((S)-1-((2S,4R)-4-hydroxy-2-(((R)-(4-(4-methylthiazol-5-yl)phenyl)(oxetan-3-yl)methyl)carbamoyl)pyrrolidin-1-yl)-3,3-dimethyl-1-oxobutan-2-yl)amino)-2-oxoethoxy)ethyl)pipera-zin-1-yl)nicotinamide] | –
